Results on 1 compound are retold here after ChEMBL document CHEMBL1134188, “Evidence for gliotoxin-glutathione conjugate adducts” (Bioorg Med Chem Lett, 2001).

A short description of the data set: The equilibrium constant pair at a pH of 7.0 and temperature of 25 degree Centigrade. The note with it: pH 7.

Compound `CN1C(=O)[C@]23CC4=CC=C[C@H](O)[C@H]4N2C(=O)[C@@]1(CO)SS3.N[C@@H](CS)C(=O)O` [GLIOTOXIN/CYSTEINE] registered a Keq of 400 M⁻¹.
